Source: patent US7541467B2, “Fluorescent zinc ion sensor” (Sekisui Medical Co., Ltd., priority 2004, dated 2009)

What was measured:
[1] = NMR titration
[2] = Fluorescent responses in the presence of various metal ions
[3] = Fluorescence on irradiation with and without added zinc ions; assay type: physicochemical
[4] = Titration with zinc ions monitored by ultraviolet and visible absorption spectra; assay type: binding
Description: TQEN was titrated with zinc ions, and changes of ultraviolet and visible absorption spectra were monitored.
In the same manner as in Test Example 3, solution of 6OMeTQEN (concentration of 6OMeTQEN: 34 μM) in water-containing DMF (DMF:water=1:1) was titrated with zinc ions (0 to 68 μM), and changes in absorption were monitored by measuring ultraviolet and visible absorption spectra (FIG. 8).

Row | absorption wavelength longer than that of TQEN by ([4]; 34 μM in DMF:water=1:1) | absorption wavelength extended to ([4]; 34 μM in DMF:water=1:1, zinc ions 0 to 68 μM) | fluorescence wavelength when zinc ions were added ([3]; excitation 340 nm, DMF:water=1:1, 34 μM, zinc ions 0 to 68 μM) | Compound | exchange rate between free and zinc-bound ligand [1] | fluorescence intensity in the presence of cadmium ions, relative to that in the presence of zinc ions [2] | fluorescence wavelength when zinc ions were added ([3]; excitation 317 nm, DMF or DMF:water=1:1) | fluorescence without zinc ions ([3]; irradiated with light of 317 nm in DMF or DMF:water=1:1) | melting point | fluorescence without zinc ions ([3]; irradiated with light of 340 nm, DMF:water=1:1, 34 μM)
1 |  |  |  | c1ccc2nc(CN(CCN(Cc3ccc4ccccc4n3)Cc3ccc4ccccc4n3)Cc3ccc4ccccc4n3)ccc2c1 [TQEN, N,N,N′,N′-tetrakis(2-quinolylmethyl)ethylenediamine] | slower than the time scale of NMR | about 60% | 383 nm | substantially no fluorescence was emitted | 196 to 198 °C | 
2 | about 20 nm | around 350 nm | 410 nm | COc1ccc2nc(CN(CCN(Cc3ccc4cc(OC)ccc4n3)Cc3ccc4cc(OC)ccc4n3)Cc3ccc4cc(OC)ccc4n3)ccc2c1 [6OMeTQEN, N,N,N′,N′-tetrakis(6-methoxy-2-quinolylmethyl)-ethylenediamine] |  |  |  |  | 168 to 170 °C | substantially no fluorescence was emitted
